Test results from ChEMBL document CHEMBL1201862, “PubChem BioAssay data set” (2004).
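How tested: cells in 96-well plates exposed to compound for 48 hours at five concentrations. GI50 is the concentration that inhibits growth by half.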 The source made the active and inactive calls. Cut-off read from the data, not from the text of the source: active = GI50 up to about 1.1 µM and inactive = higher.

Key:
Experiment in all cases: NCI tumour cell line growth inhibition, 48 h
A498 = system: A498
OVCAR-3 = system: OVCAR-3
IGROV-1 = system: IGROV-1
HCT-116 = system: HCT-116
SF-539 = system: SF-539
SF-295 = system: SF-295
PC-3 = system: PC-3
MCF7 = system: MCF7
SK-OV-3 = system: SK-OV-3
SK-MEL-5 = system: SK-MEL-5
M14 = system: M14
COLO 205 = system: COLO 205
MOLT-4 = system: MOLT-4
A549 = system: A549
SN12C = system: SN12C
ACHN = system: ACHN
HOP-62 = system: HOP-62
SF-268 = system: SF-268
NCI-H226 = system: NCI-H226

Question: For `CC(C)CC(NC(=O)C(CSc1ccc([N+](=O)[O-])cc1)Cc1ccccc1)C(=O)Nc1ccccc1` (centres undefined), which GI50 (A498) is on record?
Answer: The GI50 was > 100 µM (inactive).

Question: And the GI50 (OVCAR-3)?
Answer: The GI50 was > 100 µM (inactive).

Question: And the GI50 (IGROV-1)?
Answer: Its GI50 is 46.6 µM (inactive).

Question: And the GI50 (HCT-116)?
Answer: Its GI50 is > 100 µM (inactive).

Question: And the GI50 (SF-539)?
Answer: The GI50 was 47.9 µM (inactive).

Question: And the GI50 (SF-295)?
Answer: Its GI50 is 39.1 µM (inactive).

Question: And the GI50 (PC-3)?
Answer: The GI50 was > 100 µM (inactive).

Question: What about the GI50 (MCF7) of the same molecule?
Answer: Its GI50 is 63.7 µM (inactive).

Question: What about the GI50 (SK-OV-3) of the same molecule?
Answer: Its GI50 is > 100 µM (inactive).

Question: What about the GI50 (SK-MEL-5) of the same molecule?
Answer: Its GI50 is 64.3 µM (inactive).

Question: And the GI50 (M14)?
Answer: The GI50 was 99.8 µM (inactive).

Question: And the GI50 (COLO 205)?
Answer: Its GI50 is > 100 µM (inactive).

Question: What about the GI50 (MOLT-4) of the same molecule?
Answer: Its GI50 is 59 µM (inactive).

Question: And the GI50 (A549)?
Answer: The GI50 was 93.5 µM (inactive).

Question: What about the GI50 (SN12C) of the same molecule?
Answer: The GI50 was > 100 µM (inactive).

Question: And the GI50 (ACHN)?
Answer: The GI50 was 80.7 µM (inactive).

Question: Which GI50 (A498) does the source give for `OC1=C2c3ccccc3NC2Oc2cc(F)ccc21` (centres undefined) here?
Answer: The GI50 was 15.3 µM (inactive).

Question: And the GI50 (HOP-62)?
Answer: The GI50 was 17.7 µM (inactive).

Question: What about the GI50 (OVCAR-3) of the same molecule?
Answer: Its GI50 is 11.9 µM (inactive).

Question: And the GI50 (IGROV-1)?
Answer: Its GI50 is 21.7 µM (inactive).

Question: And the GI50 (HCT-116)?
Answer: The GI50 was 14 µM (inactive).

Question: And the GI50 (SF-268)?
Answer: Its GI50 is 18.2 µM (inactive).

Question: What about the GI50 (SF-295) of the same molecule?
Answer: The GI50 was 14.7 µM (inactive).

Question: And the GI50 (PC-3)?
Answer: The GI50 was 18.8 µM (inactive).

Question: And the GI50 (MCF7)?
Answer: Its GI50 is 24.9 µM (inactive).

Question: And the GI50 (SK-OV-3)?
Answer: The GI50 was 12.7 µM (inactive).

Question: And the GI50 (NCI-H226)?
Answer: Its GI50 is 22.4 µM (inactive).

Question: What about the GI50 (SK-MEL-5) of the same molecule?
Answer: Its GI50 is 15 µM (inactive).

Question: And the GI50 (M14)?
Answer: The GI50 was 17.3 µM (inactive).

Question: And the GI50 (COLO 205)?
Answer: Its GI50 is 14.5 µM (inactive).

Question: And the GI50 (MOLT-4)?
Answer: The GI50 was 13.6 µM (inactive).

Question: What about the GI50 (A549) of the same molecule?
Answer: Its GI50 is 19.5 µM (inactive).

Question: What about the GI50 (SN12C) of the same molecule?
Answer: Its GI50 is 12.7 µM (inactive).

Question: And the GI50 (ACHN)?
Answer: Its GI50 is 18.7 µM (inactive).

Question: For `O=C(O)CN1C(=O)C(Cc2ccc(O)cc2)N=C(c2cccc(O)c2)c2ccccc21` (centres undefined), which GI50 (A498) is on record?
Answer: Its GI50 is 12 µM (inactive).

Question: And the GI50 (HOP-62)?
Answer: The GI50 was > 100 µM (inactive).

Question: What about the GI50 (OVCAR-3) of the same molecule?
Answer: Its GI50 is > 100 µM (inactive).

Question: What about the GI50 (IGROV-1) of the same molecule?
Answer: Its GI50 is > 100 µM (inactive).

Question: What about the GI50 (HCT-116) of the same molecule?
Answer: The GI50 was > 100 µM (inactive).

Question: And the GI50 (SF-539)?
Answer: The GI50 was > 100 µM (inactive).

Question: And the GI50 (SF-268)?
Answer: The GI50 was > 100 µM (inactive).

Question: What about the GI50 (SF-295) of the same molecule?
Answer: The GI50 was > 100 µM (inactive).

Question: And the GI50 (PC-3)?
Answer: Its GI50 is > 100 µM (inactive).

Question: What about the GI50 (MCF7) of the same molecule?
Answer: The GI50 was > 100 µM (inactive).

Question: What about the GI50 (SK-OV-3) of the same molecule?
Answer: The GI50 was > 100 µM (inactive).

Question: What about the GI50 (NCI-H226) of the same molecule?
Answer: Its GI50 is > 100 µM (inactive).

Question: And the GI50 (M14)?
Answer: Its GI50 is > 100 µM (inactive).

Question: And the GI50 (MOLT-4)?
Answer: The GI50 was > 100 µM (inactive).

Question: What about the GI50 (A549) of the same molecule?
Answer: Its GI50 is > 100 µM (inactive).

Question: What about the GI50 (SN12C) of the same molecule?
Answer: The GI50 was 19 µM (inactive).

Question: And the GI50 (ACHN)?
Answer: Its GI50 is > 100 µM (inactive).

Question: How did the GI50 (A498) turn out when `O=C(O)C1CC(c2ccc(F)cc2)=Nc2ccc(F)cc2S1` (centres undefined) was run?
Answer: The GI50 was > 100 µM (inactive).

Question: What about the GI50 (OVCAR-3) of the same molecule?
Answer: Its GI50 is > 100 µM (inactive).

Question: And the GI50 (IGROV-1)?
Answer: The GI50 was > 100 µM (inactive).

Question: And the GI50 (HCT-116)?
Answer: The GI50 was > 100 µM (inactive).

Question: And the GI50 (SF-539)?
Answer: The GI50 was 92.3 µM (inactive).

Question: What about the GI50 (SF-268) of the same molecule?
Answer: The GI50 was > 100 µM (inactive).

Question: And the GI50 (SF-295)?
Answer: Its GI50 is > 100 µM (inactive).

Question: What about the GI50 (PC-3) of the same molecule?
Answer: The GI50 was > 100 µM (inactive).

Question: And the GI50 (MCF7)?
Answer: Its GI50 is > 100 µM (inactive).

Question: What about the GI50 (SK-OV-3) of the same molecule?
Answer: Its GI50 is > 100 µM (inactive).

Question: What about the GI50 (NCI-H226) of the same molecule?
Answer: Its GI50 is > 100 µM (inactive).

Question: And the GI50 (SK-MEL-5)?
Answer: Its GI50 is > 100 µM (inactive).

Question: And the GI50 (M14)?
Answer: Its GI50 is 68.2 µM (inactive).

Question: And the GI50 (COLO 205)?
Answer: The GI50 was > 100 µM (inactive).

Question: What about the GI50 (MOLT-4) of the same molecule?
Answer: Its GI50 is > 100 µM (inactive).

Question: And the GI50 (A549)?
Answer: The GI50 was > 100 µM (inactive).

Question: What about the GI50 (SN12C) of the same molecule?
Answer: The GI50 was > 100 µM (inactive).

Question: What about the GI50 (ACHN) of the same molecule?
Answer: The GI50 was > 100 µM (inactive).

Question: Which GI50 (A498) does the source give for `COc1ccc(P2(=S)Oc3ccccc3-c3ccccc3O2)cc1` here?
Answer: Its GI50 is 0.306 µM (active).

Question: And the GI50 (HOP-62)?
Answer: Its GI50 is 0.44 µM (active).

Question: What about the GI50 (OVCAR-3) of the same molecule?
Answer: Its GI50 is 0.226 µM (active).

Question: What about the GI50 (IGROV-1) of the same molecule?
Answer: Its GI50 is 0.394 µM (active).

Question: And the GI50 (HCT-116)?
Answer: The GI50 was 0.524 µM (active).

Question: What about the GI50 (SF-539) of the same molecule?
Answer: Its GI50 is 0.266 µM (active).

Question: What about the GI50 (SF-268) of the same molecule?
Answer: Its GI50 is 1.5 µM (inactive).

Question: What about the GI50 (SF-295) of the same molecule?
Answer: Its GI50 is 0.296 µM (active).

Question: And the GI50 (PC-3)?
Answer: The GI50 was 0.193 µM (active).

Question: And the GI50 (MCF7)?
Answer: Its GI50 is 0.377 µM (active).

Question: And the GI50 (NCI-H226)?
Answer: The GI50 was 7.1 µM (inactive).

Question: And the GI50 (SK-MEL-5)?
Answer: Its GI50 is 0.365 µM (active).

Question: What about the GI50 (M14) of the same molecule?
Answer: The GI50 was 0.574 µM (active).

Question: What about the GI50 (COLO 205) of the same molecule?
Answer: Its GI50 is 0.343 µM (active).

Question: And the GI50 (MOLT-4)?
Answer: Its GI50 is 0.437 µM (active).

Question: And the GI50 (A549)?
Answer: The GI50 was 0.449 µM (active).

Question: What about the GI50 (SN12C) of the same molecule?
Answer: Its GI50 is 0.37 µM (active).

Question: What about the GI50 (ACHN) of the same molecule?
Answer: The GI50 was 0.728 µM (active).

Question: How did the GI50 (A498) turn out when `CNC(=O)CCNC(=O)CCC(=O)OC` was run?
Answer: The GI50 was > 100 µM (inactive).

Question: What about the GI50 (HOP-62) of the same molecule?
Answer: The GI50 was > 100 µM (inactive).

Question: What about the GI50 (OVCAR-3) of the same molecule?
Answer: The GI50 was > 100 µM (inactive).

Question: And the GI50 (HCT-116)?
Answer: The GI50 was > 100 µM (inactive).

Question: What about the GI50 (SF-539) of the same molecule?
Answer: Its GI50 is > 100 µM (inactive).

Question: What about the GI50 (SF-268) of the same molecule?
Answer: Its GI50 is > 100 µM (inactive).

Question: What about the GI50 (SF-295) of the same molecule?
Answer: Its GI50 is > 100 µM (inactive).

Question: And the GI50 (PC-3)?
Answer: The GI50 was > 100 µM (inactive).

Question: What about the GI50 (MCF7) of the same molecule?
Answer: The GI50 was > 100 µM (inactive).

Question: And the GI50 (SK-OV-3)?
Answer: The GI50 was > 100 µM (inactive).

Question: What about the GI50 (SK-MEL-5) of the same molecule?
Answer: Its GI50 is > 100 µM (inactive).

Question: And the GI50 (M14)?
Answer: Its GI50 is > 100 µM (inactive).

Question: What about the GI50 (COLO 205) of the same molecule?
Answer: The GI50 was > 100 µM (inactive).

Question: And the GI50 (MOLT-4)?
Answer: The GI50 was > 100 µM (inactive).

Question: What about the GI50 (A549) of the same molecule?
Answer: The GI50 was > 100 µM (inactive).

Question: What about the GI50 (SN12C) of the same molecule?
Answer: The GI50 was > 100 µM (inactive).

Question: What about the GI50 (ACHN) of the same molecule?
Answer: Its GI50 is > 100 µM (inactive).
